In assay [1] the target is T1, XOR1 (rat opioid receptor-like novel receptor) (Rattus norvegicus, UniProt P35370).
T1 construct: expressed in transfected cells; host or cells: CHO-K1 and HEK-293 cells, transient calcium phosphate transfection
As to the kind of experiment: Inhibition of forskolin-stimulated cyclic AMP increase in cells transiently transfected with XOR1. To be noted: 5 μM ligand, 10 μM forskolin. The assay is classed as cell-based. The protocol:
FIGS. 4A and 4B. Inhibition of forskolin-stimulated cyclic AMP increase by dyn A-(1-13). CHO-K1 or HEK-293 cells transiently transfected with the XOR1 clone were treated with 10 μM forskolin with or without 5 μM dyn A-(1-13). The control cells were transfected with the plasmid vector and underwent the same treatment. Intracellular cyclic AMP content was determined using a radioimmunoassay kit (DuPont/NEN). Data are shown as mean ± S.E. (n=2). * indicates a significant-difference from the forskolin-only treated cells (Student's t-test, p<0.01).
Cell transfection and cyclic AMP assay--The CHO-K1 and HEK-293 cells were transiently transfected with either XOR1 (rat opioid receptor-like novel receptor) cDNA in pRc/CMV (Invitrogen) or vector only (as control) by calcium phosphate method as described by Chen et al., Mol. Cell Biol. 7:2745-2752 (1987). Three days after transfection, cells were harvested by trypsin treatment, washed and resuspended in serum-free medium. Cells were treated with ligands in the presence of 10 μM forskolin and 1 mM 3-iosbutyl-1-methylxanthine at 37° C. for 20 min. The reaction was terminated by adding 1/3 volume of 0.25M HCl. The mixture was boiled for 5 min and centrifuged at 14,000 g for 10 min. […] The cAMP in cells was determined by the nonacetylated method using the radioimmunoassay kit (DuPont/NEN) according to the manufacturer's instructions.

Assay [2] has as its target kappa opioid receptor (KOR) (Rattus norvegicus, UniProt P34975). To be noted: cited from earlier work.
Assay [3] has as its target kappa opioid receptor (KOR) (Cavia porcellus, UniProt P41144). To be noted: read-out: KOR (Ki) Guinea pig (36); cited from earlier work.

pKi: −log10 of the molar value. Where two headings read alike, the source gives them in different places.

The values below come from US5866346A (priority 1997, dated 1999).

One may read the pKi as the negative decadic logarithm of the Ki, by convention in mol/L.

Sequence of kappa opioid receptor (KOR) (Rattus norvegicus, UniProt P34975) (P34975 whole entry): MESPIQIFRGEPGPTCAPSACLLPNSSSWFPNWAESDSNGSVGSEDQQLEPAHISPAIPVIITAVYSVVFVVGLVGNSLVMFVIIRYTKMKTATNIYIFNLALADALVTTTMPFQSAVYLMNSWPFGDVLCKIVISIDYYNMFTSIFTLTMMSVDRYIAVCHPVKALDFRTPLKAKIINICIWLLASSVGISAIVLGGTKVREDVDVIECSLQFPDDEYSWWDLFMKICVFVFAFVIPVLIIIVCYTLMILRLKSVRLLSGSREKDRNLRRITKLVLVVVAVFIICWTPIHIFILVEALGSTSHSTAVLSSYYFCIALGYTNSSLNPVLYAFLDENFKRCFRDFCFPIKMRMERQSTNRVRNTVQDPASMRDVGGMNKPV
T1 sequence (P35370 whole entry): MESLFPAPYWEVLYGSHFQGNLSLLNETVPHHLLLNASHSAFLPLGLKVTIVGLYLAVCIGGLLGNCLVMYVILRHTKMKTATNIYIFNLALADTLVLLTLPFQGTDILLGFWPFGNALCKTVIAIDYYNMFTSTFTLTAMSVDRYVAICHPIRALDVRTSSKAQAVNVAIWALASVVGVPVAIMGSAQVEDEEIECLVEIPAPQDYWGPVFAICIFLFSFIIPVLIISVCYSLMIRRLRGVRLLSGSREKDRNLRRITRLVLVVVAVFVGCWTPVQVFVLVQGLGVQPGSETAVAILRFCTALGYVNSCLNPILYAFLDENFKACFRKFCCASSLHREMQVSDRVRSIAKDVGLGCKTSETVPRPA
Sequence of kappa opioid receptor (KOR) (Cavia porcellus, UniProt P41144) (P41144 whole entry): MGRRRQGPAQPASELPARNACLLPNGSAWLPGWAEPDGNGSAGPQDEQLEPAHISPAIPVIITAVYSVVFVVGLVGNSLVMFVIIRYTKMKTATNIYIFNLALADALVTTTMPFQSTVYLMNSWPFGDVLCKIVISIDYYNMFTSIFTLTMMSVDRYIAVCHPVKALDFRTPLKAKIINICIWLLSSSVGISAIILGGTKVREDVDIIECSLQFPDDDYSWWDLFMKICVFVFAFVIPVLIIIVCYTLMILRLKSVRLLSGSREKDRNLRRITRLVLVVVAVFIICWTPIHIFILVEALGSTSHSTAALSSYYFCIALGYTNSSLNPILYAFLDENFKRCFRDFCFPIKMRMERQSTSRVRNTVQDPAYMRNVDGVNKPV

For the compound `CC[C@H](C)[C@H](NC(=O)[C@H](CCCNC(=N)N)NC(=O)[C@H](CCCNC(=N)N)NC(=O)[C@H](CC(C)C)NC(=O)[C@H](Cc1ccccc1)NC(=O)CNC(=O)CNC(=O)[C@@H](N)Cc1ccc(O)cc1)C(=O)N[C@@H](CCCNC(=N)N)C(=O)N1CCC[C@H]1C(=O)N[C@@H](CCCCN)C(=O)N[C@@H](CC(C)C)C(=O)N[C@@H](CCCCN)C(=O)O` [dyn A-(1-13), dynorphin A (1-13)], the results for the “inhibition of forskolin-stimulated cAMP increase” value in assay [1] (CHO-K1 cells) and in assay [1] (HEK-293 cells) were 51% and 35%, respectively. Besides, the pKi in assay [2] (read-out: KOR (Ki) Rat (34)) was 9.92; in assay [3] it was 9.15.
For `CC[C@H](C)[C@H](NC(=O)[C@H](CCCNC(=N)N)NC(=O)[C@H](CCCNC(=N)N)NC(=O)[C@H](CC(C)C)NC(=O)[C@H](Cc1ccccc1)NC(=O)CNC(=O)CNC(=O)[C@@H](N)Cc1ccc(O)cc1)C(=O)N[C@@H](CCCNC(=N)N)C(=O)N1CCC[C@H]1C(=O)N[C@@H](CCCCN)C(=O)N[C@@H](CC(C)C)C(=O)N[C@@H](CCCCN)C(=O)N[C@@H](Cc1c[nH]c2ccccc12)C(=O)N[C@@H](CC(=O)O)C(=O)N[C@@H](CC(N)=O)C(=O)N[C@@H](CCC(N)=O)C(=O)O` [dyn A, dynorphin A], the pKi in assay [2] (read-out: KOR (Ki) Rat (27)) was 9.82; in assay [2] (read-out: KOR (Ki) Rat (33)) it was 10.30; in assay [2] (read-out: KOR (Ki) Rat (34)), 9.96; in assay [3], 9.24.
